The text below walks through data of PMC3040809 (Amino Acids, 2010).

One data set addresses T1, hOGT (Homo sapiens, UniProt O15294).
T1 sequence (O15294 26-1036 isoform O15294-3): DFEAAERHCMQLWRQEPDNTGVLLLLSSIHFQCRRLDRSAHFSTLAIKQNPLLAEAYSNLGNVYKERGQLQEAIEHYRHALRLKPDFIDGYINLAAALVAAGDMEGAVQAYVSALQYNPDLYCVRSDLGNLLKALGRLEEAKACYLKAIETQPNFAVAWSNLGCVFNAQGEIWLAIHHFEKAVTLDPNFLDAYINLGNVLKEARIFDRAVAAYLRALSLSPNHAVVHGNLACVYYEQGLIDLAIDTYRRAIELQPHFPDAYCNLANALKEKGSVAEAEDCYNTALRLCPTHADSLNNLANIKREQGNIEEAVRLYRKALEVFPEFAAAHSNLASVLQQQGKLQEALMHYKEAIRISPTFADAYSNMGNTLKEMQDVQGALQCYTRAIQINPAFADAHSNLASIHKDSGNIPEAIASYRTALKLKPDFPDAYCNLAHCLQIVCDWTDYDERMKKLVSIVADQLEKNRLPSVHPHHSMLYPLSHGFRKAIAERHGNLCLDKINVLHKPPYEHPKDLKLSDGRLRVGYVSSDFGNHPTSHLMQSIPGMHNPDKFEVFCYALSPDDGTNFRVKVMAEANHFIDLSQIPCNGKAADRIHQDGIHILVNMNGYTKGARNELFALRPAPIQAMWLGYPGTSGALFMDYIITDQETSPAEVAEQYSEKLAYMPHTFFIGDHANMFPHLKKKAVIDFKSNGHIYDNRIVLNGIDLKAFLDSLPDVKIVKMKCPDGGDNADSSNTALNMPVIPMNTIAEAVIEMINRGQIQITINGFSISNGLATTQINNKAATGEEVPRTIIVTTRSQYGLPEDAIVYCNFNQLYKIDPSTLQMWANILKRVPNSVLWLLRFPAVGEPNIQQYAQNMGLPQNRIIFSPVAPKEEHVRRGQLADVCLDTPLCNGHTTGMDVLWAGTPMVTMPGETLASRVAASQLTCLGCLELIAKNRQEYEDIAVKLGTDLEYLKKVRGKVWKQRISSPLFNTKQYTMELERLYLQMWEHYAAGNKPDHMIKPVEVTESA
Type of data set: biochemical.

The subject of data set [1] is cellular levels of O-GlcNAcylation. The following applies: ref Liu et al. [2005], [2006], [2007]; Noach et al. [2007]; Kang et al. [2008]; cited from earlier work.
For data set [2] the following is noted: physiological pH; ref Lenzen and Munday [1991]; cited from earlier work.

A word on the IC50: it is the point on the concentration scale where inhibition reaches its midpoint. A low value points to higher potency. Regarding `O=C1NC(=O)C(=O)C(=O)N1` [Alloxan], the IC50 on hOGT is 18 ± 1 µM. In addition, the “concentration required to decrease cellular levels of O-GlcNAcylation” value in data set [1] is on record as “millimolar concentrations”. In addition, in data set [2], the half-life time is on record as 1.5 min.
